Measured values reported in patent publication US20080255174A1, “Hydroalcoholic Extract Of Erythrina Mulungu, Pharmaceutical Compositions And Processes For Producing These Substances” (priority 2004, published 2008).

Legend:
Swiss mice [1] = experiment: locomotive activity test in the arena; type: in vivo; conditions: for Crossings / Stretch-attend postures: acute, number in five minutes, average ± EPM
Experimental: (§1) Swiss mice weighing 25-35 g from the central animal laboratory of the Sao Paulo State University (UNESP/Araraquara) were used. The animals were housed in groups of 10-12 animals, in polypropylene cages with wood shavings on the floor, with food and water available ad […]]. The animal laboratory was maintained under constant temperature 22±1° C., the lighting was controlled in 12-hour cycles from 7:00 am to 7:00 pm and the humidity was kept at between 50-60%. The pharmacological evaluation was performed with extract, standard drug and vehicle. Accordingly, lyophilized hydroalcoholic extract (50, 100, 200 and 400 mg/kg) was used, in addition to F2 (3, 6, 10, 17 and 30 mg/kg) and the alkaloids erythrartine, erythravine and 11-OH-erythravine (3 and 10 mg/kg), administered via oral intake by gavage. The standard drug used was Diazepam (DZP) in a dose of 2 mg/kg (via intraperitoneal, i.p). All solutions were prepared on the day of the experiment with sodium […] 0.9% and sonicated for 15 minutes and the diazepam in a solution of sodium […] 0.9% and Tween-80. The experiments were carried out between 11:00 am and 5:00 pm, and the experiment apparatus and procedures are described ahead. The elevated T maze is made with transparent glass walls and wooden floor and consists of a closed arm (30×5×15 cm) perpendicularly linked to two open arms (30×5×0.25 cm), raised at 38.5 cm above the floor by a wooden support. In this test, five consecutive measures of inhibitory avoidance were performed (basal latency, avoidances 1, 2, 3 and 4) and one measure of escape from the open arms, with intervals of 30 seconds between each attempt. In the avoidance measures, the animals were placed in the distal section of the closed arm and the exit latency of this arm, on all four paws, towards the open arm was timed. In the escape measure, the animals were placed in the extremity of the right-hand open arm and the departure time from this arm was measured. The animals' maximum length of stay in the arms of the maze during these measures was 300 seconds. The apparatus was cleaned with ethanol 20% after testing each animal. In order to avoid false positives or negatives, immediately after testing in the elevated T maze, the animals were submitted to the locomotive activity test in the arena. The apparatus consists of a white polypropylene box with a rectangular base (40×48 cm), surrounded by 30 cm high walls. The floor is subdivided into 30 squares (8×8 cm). In this test, the animals were placed in the center of the box and their activity was video recorded for five minutes, for subsequent analysis of the number of crossings of the quadrant areas and number of stretch-attend postures (WALSH and CUMMINS, 1976).
(§2) All the results from the animal models were initially submitted to the Levene homogeneity test. The heterogeneous results were converted into a logarithmic scale and later analyzed statistically. The results obtained from the elevated T maze were submitted to a two-way analysis of variance (ANOVA), with treatment being an independent factor and attempts being a dependent factor. […] The results obtained with the arena were submitted to a one-way ANOVA followed by the Duncan post hoc test. Amounts p≦0.05 were considered to be significant results.

Swiss mice [2] = experiment: elevated T maze test (inhibitory avoidance and escape from the open arms); type: in vivo; set-up: Escape: unit not given here; conditions: for Escape / Inhibitory avoidances E1 / Inhibitory avoidances E2 / Inhibitory avoidances E3 / Inhibitory avoidances E4 / Inhibitory avoidances LB (basal latency): acute, average ± EPM; for Escape: departure time from open arm; for Inhibitory avoidances E1 / Inhibitory avoidances E2 / Inhibitory avoidances E3 / Inhibitory avoidances E4 / Inhibitory avoidances LB (basal latency): latency, maximum 300 seconds
Experimental: as §1, §2

[3] = system: serotonergic 3 receptor (5-HT3); conditions: in vitro test (ELSELÈ et al., 1993); cited from earlier work

Structure (SMILES): COc1cc2c(cc1OC)[C@]13C[C@@H](O)C=CC1=CCN3C[C@H]2O [11-OH-erythravine, 11-hydroxy-erythravine]
- Crossings (Swiss mice [1]; 3 mg/kg oral by gavage): 158.5 ± 7.12
- Stretch-attend postures (Swiss mice [1]; 3 mg/kg oral by gavage): 27.7 ± 3.20
- Crossings (Swiss mice [1]; 10 mg/kg oral by gavage): 126.5 ± 12.71
- Stretch-attend postures (Swiss mice [1]; 10 mg/kg oral by gavage): 22.4 ± 3.50
- locomotive activity (number of crossings and stretch-attend postures) (Swiss mice [1]; 3 and 10 mg/kg oral, one-way ANOVA, result in words): none of the doses of 11-OH-erythravine used altered the locomotive activity
- Escape (Swiss mice [2]; 3 mg/kg oral by gavage): 21.5 ± 3.7
- Inhibitory avoidances E1 (Swiss mice [2]; 3 mg/kg oral by gavage): 41.8 ± 14.2
- Inhibitory avoidances E2 (Swiss mice [2]; 3 mg/kg oral by gavage): 96.0 ± 34.4
- Inhibitory avoidances E3 (Swiss mice [2]; 3 mg/kg oral by gavage): 132.3 ± 39.7
- Inhibitory avoidances E4 (Swiss mice [2]; 3 mg/kg oral by gavage): 194.4 ± 39.5
- Inhibitory avoidances LB (basal latency) (Swiss mice [2]; 3 mg/kg oral by gavage): 30.7 ± 5.8
- Escape (Swiss mice [2]; 10 mg/kg oral by gavage): 26.8 ± 4.8
- Inhibitory avoidances E1 (Swiss mice [2]; 10 mg/kg oral by gavage): 30.0 ± 6.1
- Inhibitory avoidances E2 (Swiss mice [2]; 10 mg/kg oral by gavage): 54.0 ± 21.1
- Inhibitory avoidances E3 (Swiss mice [2]; 10 mg/kg oral by gavage): 66.6 ± 30.3
- Inhibitory avoidances E4 (Swiss mice [2]; 10 mg/kg oral by gavage): 94.8 ± 31.7
- Inhibitory avoidances LB (basal latency) (Swiss mice [2]; 10 mg/kg oral by gavage): 22.6 ± 3.5
- performance in the inhibitory avoidance task (Swiss mice [2]; acute treatment, 3 and 10 mg/kg oral, result in words): impaired the performance of the animals in the inhibitory avoidance task

Structure (SMILES): CO[C@H]1CC=C2CCN3CCC4=C(CC(=O)OC4)[C@]23C1 [DHBE, dihydro-β-erythroidine]
- action at 5-HT3 receptor [3]: serotonergic 3 antagonist receptor (5-HT3)

Structure (SMILES): CN1C(=O)CN=C(c2ccccc2)c2cc(Cl)ccc21 [DZP, Diazepam, reference compound]
- Crossings (Swiss mice [1]; DZP 2 mg/kg i.p.): 154.6 ± 19.48
- Stretch-attend postures (Swiss mice [1]; DZP 2 mg/kg i.p.): 19.13 ± 2.03
- Escape (Swiss mice [2]; DZP 2 mg/kg i.p.): 19.0 ± 3.2
- Inhibitory avoidances E1 (Swiss mice [2]; DZP 2 mg/kg i.p.): 15.3 ± 3.8
- Inhibitory avoidances E2 (Swiss mice [2]; DZP 2 mg/kg i.p.): 12.25 ± 1.6
- Inhibitory avoidances E3 (Swiss mice [2]; DZP 2 mg/kg i.p.): 22.3 ± 7.7
- Inhibitory avoidances E4 (Swiss mice [2]; DZP 2 mg/kg i.p.): 24.2 ± 7.3
- Inhibitory avoidances LB (basal latency) (Swiss mice [2]; DZP 2 mg/kg i.p.): 24.6 ± 4.1
